Converted amounts (≈) assume the structure as drawn. Structures can show the parent of a compound that is named as a salt. Where only a bound is given, the exact number is not on record here.

In general, IC50 refers to the concentration needed to halve the response being measured. Read a high IC50 as a need for much substance. Broadly, the LD50 is the dose at which mortality reaches 50%.

Data set [1] has as its system leukotriene D4. Put plainly: Antagonistic effect on leukotriene D4 in excised guinea pig terminal ileum (in vitro, inhibition of contraction). The note with it: Cavia porcellus, leukotriene D4 0.3 ng/ml, 50% inhibition of contraction. The data set is classed as cell-based, guinea pig (male, Hartley strain). Here is the method:
Specifically, the terminal ileum was suspended, under aerated conditions, in 10 ml of Tyrode's solution containing 5×10^-7 M atropine and 1×10^-6 M mepyramine. Then, a test compound and leukotriene D4 (manufactured by Wako Junyaku Co., Ltd.) were successively added thereto with an interval of 30 seconds.
Specifically, at varying concentrations of each test compound, the percent inhibition of contraction was calculated from the measured degree of contraction of the ileum according to the following equation: [formula] On the basis of the data thus obtained, a dose-response curve was prepared and used to determine the IC50 value of the test compound.

Data set [2] deals with leukotriene D4-induced airway constriction reaction. In words: Inhibition of leukotriene D4-induced Type I allergic reaction (airway constriction), Konzett-Rossler procedure, oral administration. The data set is classed as in vivo, guinea pig (male, Hartley strain). The note with it: Cavia porcellus; oral 90 minutes before anesthesia; leukotriene D4 0.5 μg/kg i.v.; 50% inhibition of airway constriction; read-out: Inhibitory effect on Type I allergic reaction ID50 (oral). The protocol: (§1) Using male guinea pigs of the Hartley strain, weighing about 400 g, in groups of six, the inhibitory effect of the present compounds [I] and physiologically acceptable salts thereof on a Type I allergic reaction induced by leukotriene D4 was tested in two dosage forms (i.e., by intravenous injection and by oral administration) according to the Konzett-Rossler procedure [Naunyn-Schmiederbergs Archiv fur Experimentelle Pathologie und Pharmakologie, Vol. 195, p. 71, 1940]. Specifically, each guinea pig was anesthetized by intraperitoneal administration of 1.5 g/kg of urethane and an incision was made in the neck to expose the trachea. To the exposed trachea was connected a respirator (with a ventilation volume of 5-7 ml, a respiration rate of 70 per minute, and a pulmonary load pressure of 10 cmH2 O; manufactured by Ugo Basile Biological Research Apparatus Co.) by way of a cannula. The volume of air overflowing through the branch of the cannula was measured by means of a Model 7020 Bronchospasm Transducer (manufactured by Ugo Basile Biological Research Apparatus Co.) and recorded with a Model RM-6000 Polygraph (manufactured by Nippon Koden Co., Ltd.).
Oral administration tests were carried out as follows: 1 to 30 mg/kg of a test compound was orally administered to each guinea pig 90 minutes before anesthesia with urethane. Then, the anesthetized guinea pig was treated by intravenous injection of 1 mg/kg of gallamine triethiodide and administration of 0.5 μg/kg of leukotriene D4 through the cervical vein. The volume of air overflowing as a result of the induced airway constriction reaction was measured.
(§2) Both in the intravenous injection tests and in the oral administration tests, leukotriene D4 was used in the form of a solution in physiological saline.
(§3) Both in the intravenous injection tests and in the oral administration tests, the pharmacological effect on the Type I allergic reaction was evaluated in terms of the dose of the test compound at which the airway constriction reaction induced by leukotriene D4 was inhibited by 50% (hereinafter referred to as ID50), provided that ID50 was expressed in μg/kg for the intravenous injection tests and in mg/kg for the oral administration tests. […] On the basis of the data thus obtained, a dose-response curve was prepared and used to determine the ID50 value of the test compound.
(§4) Among the test compounds indicated, the compounds of Examples 1, 6 and 9 used in the intravenous injection tests were prepared according to procedure a described in the respective examples, and those used in the oral administration tests were prepared according to procedure b.

Data set [3] has the same test system. In words: Inhibition of leukotriene D4-induced Type I allergic reaction (airway constriction), Konzett-Rossler procedure, intravenous injection. Type of data set: in vivo, guinea pig (male, Hartley strain). The note with it: Cavia porcellus, 2 min, leukotriene D4 0.5 μg/kg i.v. 2 minutes later, 50% inhibition of airway constriction, read-out: Inhibitory effect on Type I allergic reaction ID50 (intravenous). Here is the method:
as §1
Intravenous injection tests were carried out as follows: Each guinea pig was treated by intravenous injection of 1 mg/kg of gallamine triethiodide. Then, 20.0 to 6000.0 μg/kg of a test compound and 0.5 μg/kg of leukotriene D4 were successively administered thereto through the cervical vein with an interval of 2 minutes. The volume of air overflowing as a result of the induced airway constriction reaction was measured. The test compound was used in the form of a solution in physiological saline containing sodium hydrogen carbonate or potassium carbonate.
as §2, §3, §4

The nature of data set [4]: Acute toxicity (LD50) in mice. The note with it: mouse, in vivo, 5-weeks-old male ddY strain mice. The protocol:
(§5) The acute toxicity (LD50) of several typical examples of the present compounds [I] and physiologically acceptable salts thereof was tested on 5-weeks-old male ddY strain mice and male SD strain rats. For this purpose, the compounds of Examples 1, 6 and 9 were selected as typical examples. […] For rats, their LD50 values were not less than 4.0 g/kg when administered orally, and not less than 200 mg/kg when administered intravenously.

Data set [5] in a line: Acute toxicity (LD50) in rats. The note with it: rat, in vivo, male SD strain rats. Here is the method:
as §5

Data set [6] concerns SRS-A. The note with it: Japanese Journal of Allergology 1984; cited from earlier work.
The test system of data set [7] is SRS-A as represented by leukotriene D4. In words: Confirmatory experiment: antagonistic effect on SRS-A as represented by leukotriene D4. The note with it: confirmatory experiment by the inventors.
Where [8] appears, read: intravenous, read-out: LD50, intravenous, mice.
Setting [9] is: oral, read-out: LD50, oral, mice.
[10] abbreviates: intravenous, read-out: LD50, intravenous, rats.
The mark [11] stands for this setting: oral, read-out: LD50, oral, rats.

In data set [1], `CCCc1c(OCc2cccn3c(=O)c(-c4nn[nH]n4)cnc23)ccc(C(C)=O)c1O` [Example 12, 9-[(4-acetyl-3-hydroxy-2-n-propylphenoxy)methyl]-3-(1H-tetrazol-5-yl)-4H-pyrido[1,2-a]pyrimidin-4-one potassium salt] gave a 50% inhibitory concentration (IC50) of 0.03 µg/mL. For the same compound, the ED50 in data set [2] was 10 mg/kg; in data set [3] it was 0.097 mg/kg.
For `CCCc1c(OCc2cccn3c(=O)c(Cc4nnn[nH]4)cnc23)ccc(C(C)=O)c1O` [Example 6, 9-[(4-acetyl-3-hydroxy-2-n-propylphenoxy)methyl]-3-[(1H-tetrazol-5-yl)methyl]-4H-pyrido[1,2-a]pyrimidin-4-one], in data set [1], half-maximal inhibition (IC50) was put at 0.01 µg/mL (≈ 0.023 µM). For the same compound, the LD50 was ≥ 100 mg/kg in data set [4] (setting [8]), ≥ 4000 mg/kg in data set [4] (setting [9]), ≥ 200 mg/kg in data set [5] (setting [10]) and ≥ 4000 mg/kg in data set [5] (setting [11]). Besides, the ED50 in data set [2] amounted to 10 mg/kg; in data set [3] it was 0.11 mg/kg.
`CCCc1c(OCc2ccn3c(=O)c(CCc4nnn[nH]4)cnc3c2)ccc(C(C)=O)c1O` [Example 10, 8-[(4-acetyl-3-hydroxy-2-n-propylphenoxy)methyl]-3-[2-(1H-tetrazol-5-yl)ethyl]-4H-pyrido[1,2-a]pyrimidin-4-one] displayed an IC50 in data set [1] of 0.6 µg/mL (≈ 1.34 µM).
`CCCc1c(OCc2ccc3ncc(Cc4nnn[nH]4)c(=O)n3c2)ccc(C(C)=O)c1O` [Example 7, 7-[(4-acetyl-3-hydroxy-2-n-propylphenoxy)methyl]-3-[(1H-tetrazol-5-yl)methyl]-4H-pyrido[1,2-a]pyrimidin-4-one]: in data set [1], the half-maximal inhibitory concentration (IC50) amounted to 0.1 µg/mL (≈ 0.23 µM).
With `CCCc1c(OCc2cccn3c(=O)c(CCc4nnn[nH]4)cnc23)ccc(C(C)=O)c1O` [Example 9, 9-[(4-acetyl-3-hydroxy-2-n-propylphenoxy)methyl]-3-[2-(1H-tetrazol-5-yl)ethyl]-4H-pyrido[1,2-a]pyrimidin-4-one], the IC50 in data set [1] turned out to be 0.005 µg/mL (≈ 0.0111 µM). Further, the LD50 in data set [4] (setting [8]) was ≥ 100 mg/kg; in data set [4] (setting [9]) it was ≥ 4000 mg/kg; in data set [5] (setting [10]) it was ≥ 200 mg/kg; in data set [5] (setting [11]), ≥ 4000 mg/kg. Moreover, the results for the ED50 in data set [2] and in data set [3] were 5 mg/kg and 0.038 mg/kg, respectively.
Turning to `Cc1cccn2c(=O)c(-c3nnn[nH]3)cnc12.[K]` [Compound TBX, 9-Methyl-3-(1H-tetrazol-5-yl)-4H-pyrido[1,2-a]pyrimidin-4-one potassium salt, reference compound], in data set [6], the “type of SRS-A drug (in words)” value is given as “belongs to the SRS-A release suppression type”. In data set [1], this compound came in with an IC50 of 200 µg/mL. Besides, the “antagonistic effect on SRS-A as represented by leukotriene D4 (in words)” value in data set [7] is listed as “no antagonistic effect”. In data set [3], the ED50 was ≥ 10 mg/kg.
Compound `CCCc1c(OCc2cc(C)cn3c(=O)c(Cc4nnn[nH]4)cnc23)ccc(C(C)=O)c1O` [Example 8, 9-[(4-acetyl-3-hydroxy-2-n-propylphenoxy)methyl]-7-methyl-3-[(1H-tetrazol-5-yl)methyl]-4H-pyrido[1,2-a]pyrimidin-4-one] registered a 50% inhibitory concentration (IC50) in data set [1] of 0.7 µg/mL (≈ 1.56 µM). In addition, the ED50 in data set [3] stood at 1.9 mg/kg.
`CCCc1c(OCc2ccn3c(=O)c(-c4nnn[nH]4)cnc3c2)ccc(C(C)=O)c1O` [Example 3, 8-[(4-acetyl-3-hydroxy-2-n-propylphenoxy)methyl]-3-(1H-tetrazol-5-yl)-4H-pyrido[1,2-a]pyrimidin-4-one] returned a half-inhibitory concentration (IC50) in data set [1] of 0.2 µg/mL (≈ 0.476 µM). For the same compound, in data set [3], the ED50 was determined as 0.17 mg/kg.
In the case of `CCCc1c(OCc2cc(Br)cn3c(=O)c(CCc4nnn[nH]4)cnc23)ccc(C(C)=O)c1O` [Example 11, 9-[(4-acetyl-3-hydroxy-2-n-propylphenoxy)methyl]-7-bromo-3-[2-(1H-tetrazol-5yl)ethyl]-4H-pyrido[1,2-a]pyrimidin-4-one], the IC50 in data set [1] was 0.9 µg/mL (≈ 1.71 µM). In data set [3], the ED50 was 2.9 mg/kg.
`CCCc1c(OCc2cccn3c(=O)c(-c4nnn[nH]4)cnc23)ccc(C(C)=O)c1O` [Example 1, 9-[(4-acetyl-3-hydroxy-2-n-propylphenoxy)methyl]-3-(1H-tetrazol-5-yl)-4H-pyrido[1,2-a]-pyrimidin-4-one] showed a concentration for half-maximal inhibition (IC50) in data set [1] of 0.03 µg/mL (≈ 0.0714 µM). Further, the LD50 in data set [4] (setting [8]) was ≥ 100 mg/kg; in data set [4] (setting [9]), ≥ 4000 mg/kg; in data set [5] (setting [10]) it was ≥ 200 mg/kg; in data set [5] (setting [11]), ≥ 4000 mg/kg. Also, the ED50 stood at 9 mg/kg in data set [2] and 0.097 mg/kg in data set [3].
On to `CCCc1c(OCc2ccc3ncc(-c4nnn[nH]4)c(=O)n3c2)ccc(C(C)=O)c1O` [Example 2, 7-[(4-acetyl-3-hydroxy-2-n-propylphenoxy)methyl]-3-(1H-tetrazol-5-yl)-4H-pyrido[1,2-a]pyrimidin-4-one], for which the IC50 in data set [1] was found to be 0.1 µg/mL (≈ 0.238 µM). The ED50 in data set [3] stood at 0.16 mg/kg.
The compound `CCCc1c(OCc2cc(Br)cn3c(=O)c(-c4nnn[nH]4)cnc23)ccc(C(C)=O)c1O` [Example 4, 9-[(4-acetyl-3-hydroxy-2-n-propylphenoxy)methyl]-7-bromo-3-(1H-tetrazol-5-yl)-4H-pyrido[1,2-a]pyrimidin-4-one] showed a concentration for half-maximal inhibition (IC50) in data set [1] of 1 µg/mL (≈ 2 µM). Moreover, the ED50 in data set [3] was determined as 4.9 mg/kg.
On to `CCCc1c(OCc2cc(C)cn3c(=O)c(-c4nnn[nH]4)cnc23)ccc(C(C)=O)c1O` [Example 5, 9-[(4-acetyl-3-hydroxy-2-n-propylphenoxy)methyl]-7-methyl-3-(1H-tetrazol-5-yl)-4H-pyrido[1,2-a]pyrimidin-4-one], for which, in data set [1], the IC50 came to 0.8 µg/mL (≈ 1.84 µM).

These data come from US4816459A, “Tetrazolyl-substituted pyrido[1,2-a]pyrimidines and use as SRS-A antagonists” (Tokyo Tanabe Co. Ltd., priority 1985, dated 1989).
